From patent US20170014462A1, “BONE AND JOINT PROTECTION COMPOSITION AND USE THEREOF” (INFINITUS (CHINA) COMPANY LTD., priority 2015, published 2017)

Tests used:
[1] = Observation of the general state and body weight in ovariectomized rats; assay type: in vivo, SD rats; settings: daily observation
[2] = system: ovariectomized SD rats (rat osteoporosis model), femora; experiment: Animal efficacy test of increasing bone density and preventing osteoporosis (ovariectomized rat osteoporosis model); assay type: in vivo; settings: left femora, 0.1 mg/100 g per day oral gavage, three months, N = 12, x ± s.d.

CCCCC(=O)O[C@H]1CC[C@H]2[C@@H]3CCc4cc(O)ccc4[C@H]3CC[C@]12C [positive control, estradiol valerate]
general state (exterior signs, behaviors, fecal property) compared with the model control group [1]: did not have significant difference in terms of exterior signs, behaviors, fecal property | bone calcium content [2]: 178.2 ± 29.3 mg/g | bone density BMD [2]: 0.207 ± 0.010 g/mL
